Results reported in patent US11065266B2, “Method of treating melanoma using an inhibitor of an atypical protein kinase C” (UNIVERSITY OF SOUTH FLORIDA, priority 2016, dated 2021).

How the values were obtained:
[1] = test system: SK-MEL-2 cells; experiment: Wound healing assay; format: cell-based, human; settings: for scratch coverage in wound healing assay: two days; for wound closure: 2.5 μM, day 3 or 4, p≤0.01
Procedure: For the wound-healing assay, melanoma cells were seeded into 35 mm dishes in 6-well-plates. After the cells had reached 100% confluency, the wound-healing assay was performed with a sterile pipette tip (1-10 μL pipette tip) by making a scratch through the confluent monolayer. Subsequently, the cells were washed with DPBS and fresh medium (EMEM) was added to each well and the desired amount of inhibitor was added in order to achieve the final concentrations of 50 nM, 100 nM, 200 nM, 500 nM and 1 μM against the control. Cells were cultured for 48 h. In 24 hours intervals, pictures of wound closure were taken and the percentage of wound closure was calculated in three randomly chosen fields.
The scratch was even clearer after two days in 1 μM sample compared to 200 nM sample. Also the number of dead cells floating was highest in 1 μM, followed by 200 nM; whereas, floating cells were rarely observed in the control samples.
A wound healing assay was performed to investigate the effect of ACPD and DNDA on malignant melanoma cell migration in vitro. Wound healing assay is commonly used to investigate in vitro migration of cancer cells. For the wound-healing assay, melanoma cells were seeded into 35 mm dishes in 6-well-plates. After the cells had reached 100% confluency, the wound-healing assay was performed with a sterile pipette tip (1-10 μL pipette tip) by making a scratch through the confluent monolayer. Subsequently, the cells were washed with DPBS and fresh medium (EMEM) was added to each well and the desired amount of inhibitor was added. Each well was subsequently incubated with sterile water or desired amount of ICA-1, ACPD, DNDA, or c-Stat to achieve the final concentration of the half maximal inhibitory concentration (IC50) for each inhibitor. Plates were incubated at 37 ° C. and 5% CO2 and photographs of wound closure were taken utilizing a Motic AE31E microscope (40× magnification). The percentage of wound closure was calculated after 3 or 4 days.
In one set of experiments, cells were cultured for 48 h. In 24 hours intervals, pictures of wound closure were taken and the percentage of wound closure was calculated in three randomly chosen fields. […] In each figure, cells treated with ACPD 2.5 μM and DNDA 2.5 μM were compared with their respective controls. The areas of the scratch (wound) were calculated and compared to determine the statistical significance (FIG. 8C).

[2] = biological target: T1, PKM-ζ (Homo sapiens, UniProt Q05513); experiment: PKC activity assay (phosphorylation of myelin basic protein); format: biochemical
T1 construct: proteolytic cleavage of N-regulatory domain and the C-terminal catalytic domain of PKC-ζ
T1 sequence (Q05513 1-409 isoform Q05513-2): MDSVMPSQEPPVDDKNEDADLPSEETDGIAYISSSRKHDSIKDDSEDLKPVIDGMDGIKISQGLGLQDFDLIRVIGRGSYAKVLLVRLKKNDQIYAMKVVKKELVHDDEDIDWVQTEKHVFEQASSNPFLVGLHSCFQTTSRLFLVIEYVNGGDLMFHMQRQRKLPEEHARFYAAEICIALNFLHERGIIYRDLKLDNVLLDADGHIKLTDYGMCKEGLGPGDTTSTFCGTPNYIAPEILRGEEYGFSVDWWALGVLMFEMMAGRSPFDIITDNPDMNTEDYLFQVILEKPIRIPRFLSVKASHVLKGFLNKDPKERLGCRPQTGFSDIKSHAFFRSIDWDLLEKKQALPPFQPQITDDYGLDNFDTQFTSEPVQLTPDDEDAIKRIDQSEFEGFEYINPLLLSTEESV
Procedure: (§1) PKC activity assay was conducted by monitoring the phosphorylation of myelin basic protein (MBP), a known substrate for PKCs. The detailed procedure was performed as described in Ling, D. S. F. et al. (2002) for PKC-ι and PKM-ζ [37].
(§2) PKC activity assay was performed by suspending 0.5 μg of PKC-ζ and PKC-ι separately in 200 μL of PKC kinase buffer to test the ability of PKC-ζ and PKC-ι of phosphorylating and immunoprecipitating HSF-1 of the SK-MEL-2 cells and PCS-200-013 cells. The PKC kinase buffer composition was 20 mM Tris-HCL (pH of 7.5), 6 mM Magnesium acetate, phosphotidylserine ([…], 20 μL of 10 mg/mL solution), ATP (0.0045 mg/mL) and also the desired inhibitors, wherever appropriate (ICA-1, ACPD, DNDA and ζ-Stat). The inhibitor was used in two different concentrations as 1 μM and 0.5 μM. The reaction was terminated after incubation for 5 minutes at 30° C. by addition of sample loading buffer. Samples were then separated by PAGE and immunoblotted against anti-PKC antibodies (either PKC-ι or PKC-ζ) and against phosphospecific HSF-1 antibodies. Samples were also probed against anti-HSF-1 antibody to determine that the protein immunoprecipitaed was HSF-1. The signal was visualized using enhanced chemiluminescence.
(§3) The activity of DNDA (FIG. 2) was determined for a series of concentrations (0-20 μM) using recombinant active PKC-ι or PKM-ζ in the presence of MBP (5 μg). The maximum inhibition of PKC-ζ was 40% and reached at 2 (P≤0.05). Inhibition remained the same upon increasing the concentration PKM-ζ is an active form of PKC-ζ found in human brain due to proteolytic cleavage of N-regulatory domain and the C-terminal catalytic domain of PKC-ζ [27-29].

[3] = biological target: T2, recombinant active PKC-ι (Homo sapiens, UniProt P41743); experiment: as above; format: biochemical
T2 sequence (P41743 1-596): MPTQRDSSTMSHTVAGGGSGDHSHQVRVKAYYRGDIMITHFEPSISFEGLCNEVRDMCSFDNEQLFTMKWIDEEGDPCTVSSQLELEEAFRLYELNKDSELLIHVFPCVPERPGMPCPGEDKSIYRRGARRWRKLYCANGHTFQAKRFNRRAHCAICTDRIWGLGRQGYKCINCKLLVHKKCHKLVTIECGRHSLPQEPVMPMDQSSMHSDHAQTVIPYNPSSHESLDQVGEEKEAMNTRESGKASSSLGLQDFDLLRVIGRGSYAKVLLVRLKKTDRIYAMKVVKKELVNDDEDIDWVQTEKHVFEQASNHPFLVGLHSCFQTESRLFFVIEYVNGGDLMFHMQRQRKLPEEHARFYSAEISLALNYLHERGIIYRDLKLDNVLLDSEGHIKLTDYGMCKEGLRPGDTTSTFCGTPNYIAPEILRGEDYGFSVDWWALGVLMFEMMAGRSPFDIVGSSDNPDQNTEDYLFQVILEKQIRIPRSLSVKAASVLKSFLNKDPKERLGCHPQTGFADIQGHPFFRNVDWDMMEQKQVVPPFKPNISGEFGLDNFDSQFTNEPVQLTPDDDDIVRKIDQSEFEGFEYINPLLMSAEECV
Procedure: as §1, §2, §3

Row | SMILES | scratch coverage in wound healing assay ([1]; 200 nM) | scratch coverage in wound healing assay ([1]; 1 μM) | wound closure [1] | maximum inhibition of PKC-ζ ([2]; reached at 2 (unit not given), series 0-20 μM, MBP 5 μg) [%] | inhibition at 0.5 µM ([3]; reached at 0.5 μM, series 0-20 μM, MBP 5 μg, read-out: maximum inhibition of PKC-ι) [%] | inhibition of PKM-ζ activity ([2]; kinase activity assay) | effect on PKC-ι in kinase activity assay [3]
1 | CC(=O)C1=C(O)CCC1=O [ACPD, 2-acetyl-1,3-cyclopentanedione] | not completely covered | not completely covered | significantly reduce the wound closure |  |  |  | 
2 | Nc1c(S(=O)(=O)O)cc2cc(S(=O)(=O)O)ccc2c1N [DNDA, 3,4-diamino-2,7-naphthalenedisulfonic acid] |  |  | significantly reduce the wound closure | 40 | ~15 |  | 
3 | O=S(=O)(O)c1cc(O)c2c(S(=O)(=O)O)cc(S(=O)(=O)O)cc2c1 [ζ-Stat, 8-hydroxy-1,3,6-naphthalenetrisulfonic acid] |  |  |  |  |  | more than 50% | does not effect
